This note sets out measurements from ChEMBL document CHEMBL5257097, “An Isomer of Galidesivir That Potently Inhibits Influenza Viruses and Members of the Bunyavirales Order” (ACS Med Chem Lett, 2023).

For orientation: EC50 means the midpoint of the concentration-response curve. In general, CC50 refers to the concentration at which the toxic effect on the cells reaches its halfway point.

Molecules are shown by their SMILES.

Data set [1] concerns Influenza A virus. Description: Antiviral activity against Influenza A virus H3N2 infected in dog MDCK cells. It is filed as functional, organism-based.
Data set [2] has as its system Influenza A virus. Description: Antiviral activity against Influenza A virus H1N1 infected in dog MDCK cells. It counts as functional, organism-based.
Data set [3] concerns Influenza A virus. The data set is described as follows: Antiviral activity against Influenza A virus H7N9 infected in dog MDCK cells. It counts as functional, organism-based.
For a further data set, the system named is Influenza B virus. Description: Antiviral activity against Influenza B virus infected in dog MDCK cells.
Data set [4] in a line: Cytotoxicity against dog MDCK cells infected with Influenza A virus H1N1. It counts as toxicity, cell-based, Canis lupus familiaris.
Data set [5] can be described thus: Cytotoxicity against dog MDCK cells infected with Influenza A virus H3N2. It is filed as toxicity, cell-based, Canis lupus familiaris.
A short description of data set [6]: Cytotoxicity against dog MDCK cells infected with Influenza B virus. It counts as toxicity, cell-based, Canis lupus familiaris.
Data set [7] relates to dengue virus type 2. Description: Antiviral activity against DENV-2 infected in African green monkey Vero cells assessed as reduction in virus-induced cytopathic effect measured after 15 to 30 mins by visual analysis. It is filed as functional, organism-based. (Damage to the host cells serves as the signal in cytopathic effect assays.)
Data set [8] relates to dengue virus type 2. Description: Antiviral activity against DENV-2 infected in African green monkey Vero cells assessed as reduction in virus-induced cytopathic effect measured after 15 to 30 mins by neutral red based analysis. It is filed as functional, organism-based.
A short description of data set [9]: Cytotoxicity against African green monkey Vero cells infected with DENV-2 assessed as reduction in cell viability by visual assay. It counts as toxicity, cell-based. Particulars: chlorocebus sabaeus; call rule not given here.
The nature of data set [10]: Cytotoxicity against African green monkey Vero cells infected with DENV-2 assessed as reduction in cell viability by neutral red dye based assay. It is filed as toxicity. Particulars: chlorocebus sabaeus.
A short description of data set [11]: Selectivity index, ratio of CC50 for cytotoxicity against African green monkey Vero cells infected with DENV-2 assessed as reduction in cell viability by visual analysis to EC50 for antiviral activity against DENV-2 infected in human Huh-7 cells assessed as reduction in virus-induced cytopathic effect by visual analysis. It is filed as toxicity, cell-based. The settings on record: read-out: Ratio CC50/EC50.

A short description of data set [12]: Selectivity index, ratio of CC50 for cytotoxicity against African green monkey Vero cells infected with DENV-2 assessed as reduction in cell viability by neutral red analysis to EC50 for antiviral activity against DENV-2 infected in human Huh-7 cells assessed as reduction in virus-induced cytopathic effect by neutral red analysis. It is filed as toxicity, cell-based. Particulars: read-out: Ratio CC50/EC50.

Data set [13] has as its system Yellow fever virus. The data set is described as follows: Antiviral activity against Yellow fever virus infected in human Huh-7 cells assessed as reduction in virus-induced cytopathic effect measured after 15 to 30 mins by visual analysis. It is filed as functional, organism-based. Particulars: huh-7.
Data set [14] concerns Zika virus. Description: Antiviral activity against Zika virus infected in African green monkey Vero 76 cells assessed as reduction in virus-induced cytopathic effect measured after 15 to 30 mins by visual analysis. It counts as functional, organism-based.
For data set [15], the system named is Zika virus. Description: Antiviral activity against Zika virus infected in African green monkey Vero 76 cells assessed as reduction in virus-induced cytopathic effect measured after 15 to 30 mins by neutral red based spectrophotometric analysis. It counts as functional, organism-based.
Data set [16] in a line: Cytotoxicity against African green monkey Vero 76 cells infected with Zika virus assessed as reduction in cell viability by visual analysis. It counts as toxicity, cell-based. Particulars: chlorocebus sabaeus.
Data set [17] can be described thus: Cytotoxicity against African green monkey Vero 76 cells infected with Zika virus assessed as reduction in cell viability by neutral red dye based assay. It is filed as toxicity. Particulars: chlorocebus sabaeus.
A short description of data set [18]: Selectivity index, ratio of CC50 for cytotoxicity against African green monkey Vero 76 infected with Zika virus assessed as reduction in cell viability by visual analysis to EC50 for antiviral activity against Zika virus infected in African green monkey Vero 76 cells assessed as reduction in virus-induced cytopathic effect by visual analysis. It is filed as toxicity, cell-based. Particulars: Vero 76 cells infected with Zika virus, read-out: Ratio CC50/EC50.

Data set [19] in a line: Selectivity index, ratio of CC50 for cytotoxicity against African green monkey Vero 76 cells infected with Zika virus assessed as reduction in cell viability by neutral red dye based analysis to EC50 for antiviral activity against Zika virus infected in African green monkey Vero 76 cells assessed as reduction in virus-induced cytopathic effect by neutral red based spectrophotometric analysis. It is filed as toxicity. The settings on record: read-out: Ratio CC50/EC50.

The subject of data set [20] is Influenza A virus. Description: Antiviral activity against Influenza A virus H1N1 infected in dog MDCK cells assessed as reduction in virus-induced cytopathic effect measured after 15 to 30 mins by visual analysis. It counts as functional, organism-based.
The test system of data set [21] is Influenza A virus. Description: Antiviral activity against Influenza A virus H1N1 infected in dog MDCK cells assessed as reduction in virus-induced cytopathic effect measured after 15 to 30 mins by neutral red based analysis. It is filed as functional, organism-based.
Data set [22] is described as follows: Cytotoxicity against dog MDCK cells infected with Influenza A virus H1N1 assessed as reduction in cell viability by visual analysis. It counts as toxicity, cell-based, Canis lupus familiaris.
Data set [23] in a line: Cytotoxicity against dog MDCK cells infected with Influenza A virus H1N1 assessed as reduction in cell viability by neutral red dye based assay. It counts as toxicity, Canis lupus familiaris.
Data set [24] concerns Middle East respiratory syndrome-related coronavirus. The data set is described as follows: Antiviral activity against MERS-CoV infected in vervet monkey MA-104 cells assessed as reduction in virus-induced cytopathic effect measured after 15 to 30 mins by visual analysis. It counts as functional, organism-based. Particulars: MA104.
For data set [25] the test system is unchanged. Description: Antiviral activity against MERS-CoV infected in vervet monkey MA-104 cells assessed as reduction in virus-induced cytopathic effect measured after 15 to 30 mins by neutral red dye based assay. Particulars: MA104. It is filed as functional, organism-based.
Data set [26] in a line: Cytotoxicity against vervet monkey MA-104 cells infected with MERS-CoV assessed as reduction in cell viability by visual assay. It counts as toxicity, cell-based. Particulars: cercopithecus pygerythrus.
Data set [27] can be described thus: Cytotoxicity against vervet monkey MA-104 cells infected with MERS-CoV assessed as reduction in cell viability by neutral red dye based assay. Particulars: cercopithecus pygerythrus. It counts as toxicity.
Data set [28] in a line: Selectivity index, ratio of CC50 for cytotoxicity against African green monkey Vero 76 cells infected with MERS-CoV assessed as reduction in cell viability by visual analysis to EC50 for antiviral activity against MERS-CoV infected in African green monkey Vero 76 cells assessed as reduction in virus-induced cytopathic effect by visual analysis. It is filed as toxicity, cell-based. Particulars: read-out: Ratio CC50/EC50.

Data set [29] in a line: Selectivity index, ratio of CC50 for cytotoxicity against African green monkey Vero 76 cells infected with MERS-CoV assessed as reduction in cell viability by neutral red dye based analysis to EC50 for antiviral activity against MERS-CoV infected in African green monkey Vero 76 cells assessed as reduction in virus-induced cytopathic effect by neutral red dye based analysis. It is filed as toxicity. Particulars: read-out: Ratio CC50/EC50.

For data set [30], the system named is Rift Valley fever virus. Description: Antiviral activity against Rift valley fever virus infected in African green monkey Vero 76 cells assessed as reduction in virus-induced cytopathic effect measured after 15 to 30 mins by visual analysis. It counts as functional, organism-based.
Data set [31] in a line: Cytotoxicity against African green monkey Vero 76 cells infected with Rift valley fever virus assessed as reduction in cell viability by visual analysis. It is filed as toxicity, cell-based. Particulars: chlorocebus sabaeus.
For data set [32], the system named is Rift Valley fever virus. The data set is described as follows: Antiviral activity against Rift valley fever virus infected in African green monkey Vero 76 cells assessed as reduction in virus-induced cytopathic effect measured after 15 to 30 mins by neutral red dye based analysis. It is filed as functional, organism-based.
The nature of data set [33]: Cytotoxicity against African green monkey Vero 76 cells infected with Rift valley fever virus assessed as reduction in cell viability by neutral red dye based analysis. It is filed as toxicity. Particulars: chlorocebus sabaeus.
Data set [34] is described as follows: Selectivity index, ratio of CC50 for cytotoxicity against African green monkey Vero 76 cells infected with Rift valley fever virus assessed as reduction in cell viability by visual analysis to EC50 for antiviral activity against Rift valley fever virus infected in African green monkey Vero 76 cells assessed as reduction in virus-induced cytopathic effect by visual analysis. It is filed as toxicity, cell-based. Particulars: read-out: Ratio CC50/EC50.

A short description of data set [35]: Selectivity index, ratio of CC50 for cytotoxicity against African green monkey Vero 76 cells infected with Rift valley fever virus assessed as reduction in cell viability by neutral red dye based analysis to EC50 for antiviral activity against Rift valley fever virus infected in African green monkey Vero 76 cells assessed as reduction in virus-induced cytopathic effect by neutral red dye based analysis. It is filed as toxicity. Particulars: read-out: Ratio CC50/EC50.

Data set [36] concerns dengue virus type 2. The data set is described as follows: Antiviral activity against DENV-2 infected in human Huh-7 cells assessed as reduction in virus-induced cytopathic effect measured after 15 to 30 mins by neutral red based analysis. It counts as functional, organism-based.
For data set [37], the system named is Huh-7. The data set is described as follows: Cytotoxicity against human Huh-7 cells infected with DENV-2 assessed as reduction in cell viability by visual analysis. It counts as functional.
Data set [38] has as its system Yellow fever virus. The data set is described as follows: Antiviral activity against Yellow fever virus infected in human Huh-7 cells assessed as reduction in virus-induced cytopathic effect measured after 15 to 30 mins by neutral red based analysis. It counts as functional, organism-based.
Data set [39] deals with Huh-7. Description: Cytotoxicity against human Huh-7 cells infected with Yellow fever virus assessed as reduction in cell viability by visual assay. It counts as functional.
In data set [40] the test system is Middle East respiratory syndrome-related coronavirus. Description: Antiviral activity against MERS-CoV infected in African green monkey Vero 76 cells assessed as reduction in virus-induced cytopathic effect measured after 15 to 30 mins by neutral red dye based analysis. It is filed as functional, organism-based.
The nature of data set [41]: Cytotoxicity against African green monkey Vero 76 cells infected with MERS-CoV assessed as reduction in cell viability by neutral red dye based analysis. It counts as toxicity. Particulars: chlorocebus sabaeus.
Data set [42] in a line: Selectivity index, ratio of CC50 for cytotoxicity against human Huh-7 cells infected with Yellow fever virus assessed as reduction in cell viability by neutral red dye based assay to EC50 for antiviral activity against Yellow fever virus infected in human Huh-7 cells assessed as reduction in virus-induced cytopathic effect by neutral red based analysis. It counts as toxicity. The settings on record: read-out: Ratio CC50/EC50.

The nature of data set [43]: Selectivity index, ratio of CC50 for cytotoxicity against dog MDCK cells infected with Influenza A virus H1N1 assessed as reduction in cell viability by neutral red dye based analysis to EC50 for antiviral activity against Influenza A virus H1N1 infected in dog MDCK cells assessed as reduction in virus-induced cytopathic effect by neutral red dye based analysis. It counts as toxicity. Particulars: read-out: Ratio CC50/EC50.

Regarding `NC(=O)c1ncn([C@@H]2O[C@H](CO)[C@@H](O)[C@H]2O)n1` [RIBAVIRIN], the EC50 is 1.9 µM with Influenza A virus [1], 1.9 µM in the data set with Influenza A virus [2], 10 µM in the data set with Influenza A virus [3] and 1.9 µM with Influenza B virus. The CC50 in data set [4], in data set [5] and in [6] was above 1000 µM in each case.
In the case of `Nc1ncnc2c([C@@H]3N[C@H](CO)[C@@H](O)[C@H]3O)n[nH]c12`, the EC50 in the data set on dengue virus type 2 [7] is 3.2 µM; in the data set on dengue virus type 2 [8], 2.8 µM; in the data set on Yellow fever virus [13], “Not Active”; in the data set with Zika virus [14], 32 µM; in the data set with Zika virus [15] it was 12 µM; with Influenza A virus [20] it was above 100 µM. The EC50 with Influenza A virus [21] was above 100 µM; in data set [24], 8.6 µM; in [25], 9.9 µM; in the data set with Rift Valley fever virus [30], 4.2 µM; in the data set on Rift Valley fever virus [32] it was 4.2 µM. Further, the CC50 in data set [9] was above 100 µM; in [10] it was 2.8 µM; in data set [16], 100 µM; in data set [17], 13 µM; in data set [22], above 100 µM; in data set [23], above 100 µM. The CC50 is 42 µM in [26], 45 µM in [27], 8.3 µM in data set [31] and above 100 µM in [33]. Further, the selectivity ratio in data set [11] amounted to 3.1; in [12], 3.5; in data set [18] it was 3.1; in data set [19] it was 1.1; in [28], 4.9; in data set [29] it was 4.5. Further, the selectivity ratio in data set [34] is 8.3; in [35], 7.6.
Consider `CC(C)OC(=O)[C@H](C)N[P@](=O)(OC[C@H]1N[C@@H](c2c[nH]c3c(N)ncnc23)[C@H](O)[C@@H]1O)Oc1ccccc1`, for which the EC50 (with dengue virus type 2 [36]; in the data set on Yellow fever virus [38]; in the data set with Influenza A virus [21]; in [40]; with Rift Valley fever virus [32]) was above 100 µM throughout. Also, the CC50 (with Huh-7 [37]; in the data set on Huh-7 [39]; in data set [23]; in data set [41]; in data set [33]) was above 100 µM in each case.
Regarding `CC(C)OC(=O)[C@H](C)N[P@](=O)(OC[C@H]1N[C@@H](c2ccc3c(N)ncnn23)[C@H](O)[C@@H]1O)Oc1ccccc1`, the EC50 in the data set on dengue virus type 2 [36] is 1.1 µM; in the data set with Yellow fever virus [38], 3.6 µM; with Influenza A virus [21] it was 4.7 µM; in [40], 13 µM; with Rift Valley fever virus [32], 0.99 µM. In addition, the CC50 with Huh-7 [37] is 9.9 µM; in the data set with Huh-7 [39] it was 9.9 µM; in data set [23] it was above 32 µM; in data set [41], 68 µM; in data set [33] it was above 32 µM. In addition, the selectivity ratio was 9 in data set [42], above 6.8 in data set [43], 5.2 in data set [29] and above 32 in [35].
